The nature of this data set: Measurement of total area by solid phase microextraction GC/FID method. The class given is physicochemical. Also on record: unit not given here. The settings on record: total area attributable to components other than the glyceryl ethers; 1.0 g glyceryl ether, 15 minutes at 50° C., after deodorization for the stated time. On the procedure:
The total area, as measured using a solid phase microextraction GC/FID method, was measured for each of glyceryl ethers 1 to 12 following the deodorization. Specifically, 1.0 g of a deodorized glyceryl ether was placed in a container, impurities and by-products contained in the glyceryl ether were adsorbed on fibers of DVB/PDMS (divinylbenzene dispersed/polydimethylsiloxane) by heating for 15 minutes at 50° C., these fibers were placed in a holder, and measurements were carried out using gas chromatography (apparatus: GC-2014, produced by Shimadzu Corporation) under the measurement conditions shown below. The total area attributable to components other than the glyceryl ethers was then calculated on the basis of a JIS K 0114 (2012) absolute calibration curve using the analysis software of the chromatography apparatus.
Column: InertCap (registered trademark) PureWAX (length 30 m, film […] 0.50 μm, inner diameter […])
Carrier flow rate: 124.5 mL/min
Injection port temperature: 260° C.
Detector temperature: 260° C.
Consider `OCC(O)COC1CCCCC1` (stereo not drawn) [Glyceryl ether 10, Monocyclohexyl glyceryl ether], for which the Total area was 90,000.

As for `CCCCCCOCC(O)CO` (stereo not drawn) [Glyceryl ether 4, Monohexyl glyceryl ether], the Total area was 80,000.

For the compound `CCCCCCOCC(O)CO` (stereo not drawn) [Glyceryl ether 2, Monohexyl glyceryl ether], the Total area is on record as 120,000. In the case of `CCCCCCOCC(O)CO` (stereo not drawn) [Glyceryl ether 5, Monohexyl glyceryl ether], the Total area is reported as 60,000. Consider `CCCCCCOCC(O)CO` (stereo not drawn) [Glyceryl ether 7, Monohexyl glyceryl ether], for which the Total area is listed as 50,000. For the compound `OCC(O)COC1CCCCC1` (stereo not drawn) [Glyceryl ether 12, Monocyclohexyl glyceryl ether], the Total area was 50,000. Turning to `OCC(O)COC1CCCCC1` (stereo not drawn) [Glyceryl ether 8, Monocyclohexyl glyceryl ether], the Total area is listed as 300,000.

For the compound `CCCCCCOCC(O)CO` (stereo not drawn) [Glyceryl ether 6, Monohexyl glyceryl ether], the Total area is on record as 50,000. Turning to `OCC(O)COC1CCCCC1` (stereo not drawn) [Glyceryl ether 9, Monocyclohexyl glyceryl ether], the Total area is listed as 150,000.

With `OCC(O)COC1CCCCC1` (stereo not drawn) [Glyceryl ether 11, Monocyclohexyl glyceryl ether], the Total area is listed as 50,000. On to `CCCCCCOCC(O)CO` (stereo not drawn) [Glyceryl ether 3, Monohexyl glyceryl ether], for which the Total area is given as 80,000. Turning to `CCCCCCOCC(O)CO` (stereo not drawn) [Glyceryl ether 1, Monohexyl glyceryl ether], the Total area is reported as 200,000.

Values taken from patent US11918668B2, “Method for producing glyceryl ether-containing composition, and glyceryl ether-containing composition” (ADEKA CORPORATION, priority 2018, dated 2024).
